Experimental data reported in patent US20090220528A1, “Stimulation of Toll-Like Receptors on T Cells” (THE TRUSTEES OF THE UNIVERISTY OF PENNSYLVANIA CNETER FOR …, priority 2005, published 2009).

Columns and labels:
[1] = system: MyD88-/- activated CD4+ T cells; experiment: TLR ligand-mediated survival of MyD88-/- activated CD4+ T cells; format: cell-based, mouse; settings: FIG. 4B
Description: BALB/c mice were purchased from The Jackson Laboratory (Bar Harbor, Me.). DO11.10 mice on the BALB/c background have been described previously (Hsieh et al., 1992, Proc. Natl. Acad. Sci. USA 89:6065). MyD88^−/− mice have been described previously (Adachi et al., 1998, Immunity 9:143). For these experiments MyD88^+/− mice were backcrossed at least five times onto a C57BL/6 background and intercrossed to generate MyD88^−/− and MyD88^+/+ wild-type control littermates.
Following activation, purified CD4^+ T cells were washed twice in PBS and replated in culture medium at 10^6/ml. Cultures were left untreated or treated with either TLR ligands and/or inhibitors for indicated times and concentrations. Following incubation, CD4^+ T cells were washed twice in PBS/2% FBS and stained with CD4-allophycocyanin monoclonal antibody and 7-aminoactinomycin D (7-AAD; BD PharMingen) or annexin (BD PharMingen) and survival was assessed by exclusion of either of these two stains. […] Live CD4^+ T cell counts were calculated by taking the ratio of the number of CD4^+CD45.1^−7-ADD^− events collected to the number CD45.1^+ events collected and multiplying by 50,000. Proliferation was measured by CFSE dye dilution as previously described (Wells et al., 1997 J. Clin. Invest. 100:3173). […]

[2] = system: activated DO11.10 CD4+ T cells; experiment: Adoptive transfer and ex vivo proliferation analysis; format: in vivo, mouse
Procedure: Five million purified DO11.10 CD4^+ T cells were activated by pOVA-pulsed APCs (1 μg/ml), purified with magnetic beads, treated with poly(I:C) (90 μg/ml), CpG DNA (30 μM), LPS (100 ng/ml), or left untreated for 16 hours, washed in PBS twice, and then adoptively transferred into BALB/c hosts. At day 30, spleen and peripheral lymph nodes were harvested and stained with anti-CD4 monoclonal antibody and the DO11.10 clonotypic monoclonal antibody KJI-26. Survival of activated DO11.10 CD4^+ T cells in each host was determined by FACS analysis and is expressed as a percent with respect to the total number of CD4^+ T cells found in either the host spleen or lymph nodes along with a mean (thick line) for each treatment group. […] [^3H]Thymidine was added to cultures for an additional 8 hour and read on a beta scintillation counter and is expressed as a mean for each treatment group ±SEM.
To address this question, DO11.10 CD4^+ T cells were first activated with pOVA-pulsed APCs, purified by magnetic beads, treated with TLR ligands for 16 hours, washed, and then adoptively transferred into congenic BALB/c hosts. Survival and ex vivo proliferative responses were assessed 30 days later (FIGS. 5A and 5B). […]

poly(I:C)
enhanced survival response in MyD88-/- activated CD4+ T cells [1]: left intact
increase in percentage of recovered DO11.10 CD4+ T cells in host spleen ([2]; day 30 after adoptive transfer into BALB/c hosts, cells treated 16 hours before transfer, vs LPS-treated or untreated cells (FIG. 5A)): ~2 fold
increase in proliferative response to pOVA of splenic CD4+ T cells ([2]; ex vivo, day 30, vs hosts that received LPS-treated or untreated cells (FIG. 5B)): 2 fold
